Data on 20 compounds can be found in ChEMBL document CHEMBL3351442, “Synthesis and antiproliferative evaluation of 2-hydroxylated (E)-stilbenes” (Bioorg Med Chem Lett, 2014).

pIC50: −log10 of the molar value.

What all share (assay type): functional, cell-based
A short description of experiment [1]: Antiproliferative activity against human MDA468 cells by MTT assay. The settings on record: MDA-MB-468.
The subject of a further experiment is MGC-803. The experiment can be described thus: Antiproliferative activity against human MGC803 cells by MTT assay.
The subject of a further experiment is HT-29. Put plainly: Antiproliferative activity against human HT-29 cells by MTT assay. In general terms: Formazan colour is commonly taken as a measure of viable cells.
A short description of experiment [2]: Antiproliferative activity against human COLO205 cells by MTT assay. The settings on record: COLO 205.

Regarding `COc1cccc(/C=C\c2cc(OC)c(OC)c(OC)c2)c1O`, the pIC50 (usually the IC50 on a negative log10 scale, so that one unit is a factor of ten) is 5.59 in experiment [1] and 5.96 in the experiment with MGC-803.
For the compound `COc1cc(/C=C/c2ccccc2O)cc(OC)c1`, the pIC50 with HT-29 is 4.58; in experiment [1], 4.90; with MGC-803 it was 5.20.
In turn, `Oc1ccccc1/C=C/c1ccccc1` gave a pIC50 in experiment [1] of 4.71.
As for `Cc1ccc(/C=C/c2ccccc2O)cc1`, the pIC50 with HT-29 was 4.64; in experiment [1], 4.66.
Regarding `Oc1ccccc1/C=C/c1ccc(Br)cc1`, the pIC50 with HT-29 is 4.84; in experiment [1], 5.13; in experiment [2], 4.68.
Turning to `Oc1ccc(/C=C/c2ccccc2O)cc1`, in the experiment on HT-29, the pIC50 was 4.47.
Compound `N#Cc1ccc(/C=C/c2ccccc2O)cc1` gave a pIC50 with MGC-803 of 5.51.
As to `Oc1cc(O)cc(/C=C/c2ccccc2O)c1`, in the experiment on HT-29, the pIC50 is 4.58.
Regarding `COc1cccc(/C=C/c2ccc(O)cc2)c1O`, in experiment [1], the negative-log IC50 (pIC50) is 5.16.
Take `COc1ccc(/C=C/c2cccc(OC)c2O)cc1`: in experiment [2], the pIC50 was 4.69.
Regarding `COc1ccc(/C=C/c2cccc(OC)c2O)c(OC)c1`, the pIC50 in experiment [1] is 5.29.
Turning to `Oc1ccc(/C=C/c2cc(Br)ccc2O)cc1`, the results for the pIC50 (in the experiment with HT-29; in experiment [1]) were 4.57 and 5.46, respectively.
As for `COc1ccc(/C=C/c2cc(Br)ccc2O)c(OC)c1`, the pIC50 in the experiment with HT-29 is 5.00; in experiment [1], 5.43; in the experiment on MGC-803 it was 5.46.
As for `Cc1cc(C)cc(/C=C/c2cc(Br)ccc2O)c1`, the results for the pIC50 (in the experiment on HT-29; in experiment [1]; with MGC-803) were 4.88, 5.14 and 5.30, respectively.
Take `COc1cc(/C=C/c2cc(Br)ccc2O)cc(OC)c1`: the pIC50 with HT-29 is 5.02; in experiment [1], 5.21; in experiment [2] it was 4.79; in the experiment with MGC-803 it was 5.48.
For `COc1cc(/C=C/c2cc(Br)ccc2O)cc(OC)c1OC`, the values for the pIC50 (in the experiment with HT-29; in experiment [1]; in the experiment with MGC-803) were 4.73, 4.85 and 5.35, respectively.
Take `COc1cc(/C=C/c2cc([N+](=O)[O-])ccc2O)cc(OC)c1`: the pIC50 was 4.90 in the experiment on HT-29 and 4.97 in the experiment on MGC-803.
Take `COc1cc(/C=C/c2cc([N+](=O)[O-])ccc2O)cc(OC)c1OC`: in the experiment on MGC-803, the negative-log IC50 (pIC50) was 4.83.
Turning to `COc1ccc(/C=C/c2cc(OC)c(OC)c(OC)c2)c(O)c1`, the pIC50 with HT-29 is 5.01; in experiment [1], 5.28; in experiment [2], 5.28; with MGC-803 it was 7.46.
As for `Oc1ccc(/C=C/c2cc(O)cc(O)c2)cc1` [RESVERATROL], the negative logarithm of the IC50 (pIC50) with HT-29 was 4.06; in experiment [1] it was 4.34; in experiment [2] it was 4.63; in the experiment with MGC-803, 4.38.
